Results on two molecules are retold here after patent publication US20200046641A1, “LIPOSOMES FOR THE TREATMENT OF OCULAR DISEASES” (TDC Technology Dedicated to Care srl, priority 2018, published 2020).

For the data set, the system named is chorioallantoic membrane (CAM) of 10 days embryonated eggs. The data set can be described thus: Ocular irritation by HET CAM test. Conditions: 0.3 ml applied on CAM; bleeding, vasoconstriction, clotting. Also noted: species or system hen. An excerpt:
The in vitro test described in the present example has been carried out in order to evaluate if the ocular topical administration of the liposomes could cause irritation to the eye. To such purpose, the in vitro HET CAM test as described in […]-Recommended Test Method Protocol has been carried out: Hen's Egg Test-Chorioallantoic Membrane (HET-CAM) Test Method. The HET CAM test has been carried out by observing the irritation effects (bleeding, vasoconstriction and clotting) induced on the chorioallantoic membrane (CAM) of 10 days embryonated eggs by applying 0.3 ml of liposomes under test and calculating the ocular irritation index (“OII”) according to the formula described in Table 6. [table] The liposomes under examination in the present test are F1 and F2 liposomes. By means of the same method, the following controls have been also tested: SDS 1% (positive control with slow irritation), 0.1 N NaOH (positive control with fast irritation) and NaCl 0.9% (negative control). The embryonated eggs for this test have been obtained by the […]. farm, Tarragona, Spain. The eggs are kept at a temperature of 12±1° C. for at least 24 hours before placing them into the incubator at controlled temperature (37.8° C.) and humidity (50-60%) during the incubation days. The data have been analyzed as mean ±standard deviation at the moment when the injury occurred (n=3/group).

On to `[Na+].[OH-]` [0.1 N NaOH, NaOH], for which the “Irritating effects (HET CAM)” value is “irritating effects”.

Regarding `CCCCCCCCCCCCOS(=O)(=O)[O-].[Na+]` [SDS 1%, SDS], the “Irritating effects (HET CAM)” value is “irritating effects”.
